Measurements taken from patent US6869939B2, “Formulations containing amiodarone and sulfoalkyl ether cyclodextrin” (CyDex, Inc., priority 2002, dated 2005).
Where two headings read alike, the source gives them in different places.

Tests used:
[1] = room temperature (not heated), pH 4.5
[2] = pH 4.5
Text: The mixture can optionally further comprise a buffer or other charged species wherein the concentration of the buffer or other charged species is less than about 0.5M.

[3] = SBE7-β-CD 0.5% w/v (0.00231 Molar)
[4] = SBE7-β-CD 1% w/v (0.00462 Molar)
[5] = SBE7-β-CD 3% w/v (0.0139 Molar)
[6] = SBE7-β-CD 5% w/v (0.0231 Molar)
[7] = SBE7-β-CD 30% w/v (0.139 Molar)
[8] = SBE7-β-CD 50% w/v (0.231 Molar)
[9] = SBE7-β-CD 80% w/v (0.370 Molar), by extrapolation of phase solubility data

Row | times SBE7-β-CD is more effective at solubilizing amiodarone than the named cyclodextrin [2] [times] | Compound | Amiodarone (Ami) [1, 3] [mg/mL] | Amiodarone (Ami) Molar [1, 3] [Molar] | Amiodarone (Ami) [1, 4] [mg/mL] | Amiodarone (Ami) Molar [1, 4] [Molar] | Amiodarone (Ami) [1, 5] [mg/mL] | Amiodarone (Ami) Molar [1, 5] [Molar] | Amiodarone (Ami) [1, 6] [mg/mL] | Amiodarone (Ami) Molar [1, 6] [Molar] | Amiodarone (Ami) [1, 7] [mg/mL] | Amiodarone (Ami) Molar [1, 7] [Molar] | Amiodarone (Ami) [1, 8] [mg/mL] | Amiodarone (Ami) Molar [1, 8] [Molar] | Amiodarone (Ami) [1, 9] [mg/mL] | Amiodarone (Ami) Molar [1, 9] [Molar]
1 |  | CCCCc1oc2ccccc2c1C(=O)c1cc(I)c(OCCN(CC)CC)c(I)c1.Cl [Amiodarone HCl, (2-butyl-3-benzofuranyl)[4-[2-(diethylamino)ethoxy]-3,5-diiodophenyl]methanone hydrochloride] | 0.482 | 0.000708 | 3.0 | 0.0045 | 20.6 | 0.03019 | 28.8 | 0.0423 | 53.8 | 0.079 | 72.2 | 0.106 | 100.8 | 0.148
2 | 1.7 | dimethyl-beta cyclodextrin [Methyl (DS˜14)] |  |  |  |  |  |  |  |  |  |  |  |  |  | 
